≈ marks a conversion by molar mass, not a printed value. Where two headings read alike, the source gives them in different places.
Key:
[1] = system: Coxsackie B3 virus (strain Nancy); assay: Anti-coxsackie virus assay, cytopathic effect in Vero cells (MTS); type: cell-based; conditions: Enterovirus B, Table 13, reduction of virus (CBV-3 Nancy strain)-induced cytopathic effect in Vero cells by 50%
Description: (§1) Madin-Darbey Bovine Kidney (MDBK) cells were maintained in Dulbecco's modified Eagle medium (DMEM) supplemented with BVDV-free 5% fetal calf serum (DMEME-FCS) at 37° C. in a humidified, 5% CO2 atmosphere. BVDV-1 (strain PE515) was used to assess the antiviral activity in MDBK cells. Vero cells were maintained in the same way as MDBK cells. Vero cells were infected with Coxsackie B3 virus (strain Nancy).
(§2) Ninety-six-well cell culture plates were seeded with Vero cells in DMEM medium containing 10 fetal calf serum (FCS) so that cells reached confluency 24-48 hr later. Medium was then removed and serial 5-fold dilutions of the test compounds were added in a total volume of 100 ul, after which the virus inoculum (100 μl) was added to each well. […] Uninfected cells and cells receiving virus without compound were included in each asay plate. After 5 days, the medium was removed and 90 μl of DMEM-FCS and 10 μl of MTS/PMS solution (Promega) was added to each well. Following a 2 hr incubation period at 37° C., the optical density of the wells was read at 498 nm in a microplate reader. The 50% effective concentration (EC50) value was defined as the concentration of compound that protects 50% of the cell monolayer from virus-induced cytopathic effect.

[2] = system: Vero cells; assay: Metabolism of confluent Vero cells (MTS); type: cell-based; conditions: Table 13; reduction of metabolism of confluent Vero cells by 50%, MTS method
Description: as §1, §2

[3] = Proliferation of exponentially growing Huh-5-2 cells (MTS); type: cell-based; conditions: human, exponentially growing Huh-5-2 cells (HCV replicon cell line); Table 11; inhibition of proliferation of exponentially growing Huh-5-2 cells by 50%
Description: (§3) Cells were seeded at a density of 7000 cells per well in 96 well View Plate™ (Packard) in medium containing the same components as described above, except for G418. Cells were allowed to adhere and proliferate for 24 hr. At that time, culture medium was removed and serial dilutions of the test compounds were added in culture medium lacking G418. Interferon alfa 2a (500 IU) was included as a positive control. Plates were further incubated at 37° C. and 5% CO2 for 72 hours. Replication of the HCV replicon in Huh-5 cells results in luciferase activity in the cells. Luciferase activity is measured by adding 50 μl of 1× Glo-lysis buffer (Promega) for 15 minutes followed by 50 ul of the Steady-Glo Luciferase assay reagent (Promega). Luciferase activity is measured with a luminometer and the signal in each individual well is expressed as a percentage of the untreated cultures. […] Instead the density of the culture is measured by means of the MTS method (Promega).

[4] = system: BVDV-1 (strain PE515); assay: Anti-BVDV assay, virus-induced cytopathic effect in MDBK cells (MTS); type: cell-based, Bovine Viral Diarrhea Virus
Description: as §1
Ninety-six-well cell culture plates were seeded with MDBK cells in DMEM-FCS so that cells reached 24 hr later confluency. Then medium was removed and serial 5-fold dilutions of the test compounds were added in a total volume of 100 ul, after which the virus inoculum (100 ul) was added to each well. […] Uninfected cells and cells receiving virus without compound were included in each assay plate. After 5 days, medium was removed and 90 μl of DMEM-FCS and 10 ul of MTS/PMS solution (Promega) was added to each well. Following a 2 hr incubation period at 37° C. the optical density of the wells was read at 498 nm in a microplate reader.

[5] = Cytostatic effect on exponentially growing MDBK cells (MTS); type: cell-based, Bovine; conditions: bovine; Table 9; reduction of growth of exponentially growing MDBK cells by 50%; mean of 2-5 determinations
Description: (§4) Madin-Darbey Bovine Kidney (MDBK) cells were maintained in Dulbecco's modified Eagle medium (DMEM) supplemented with BVDV-free 5% fetal calf serum ([…]) at 37° C. in a humidified, 5% CO2 atmosphere. […] Vero cells were maintained in the same way as MDBK cells. […] The effect of the drugs on exponentially growing MDBK cells was assessed as follows. Cells were seeded at a density of 5000 cell/well in 96 well plates in MEM medium (Gibco) supplemented with 10% fetal calf serum, 2 mM L-glutamine (Life Technologies) and bicarbonate (Life Technologies). […] Cultures were then again further incubated for 3 days after which the effect on cell growth was quantified by means of the MTS method (Promega).

[6] = system: HCV replicon in Huh-5-2 cells; assay: Anti-HCV replicon assay, luciferase activity in Huh-5-2 cells; type: cell-based; conditions: Hepatitis C virus, Table 11, inhibition of luciferase activity in the replicon system by 50%
Description: as §3

[7] = system: MDBK cells; assay: Cytostatic effect on exponentially growing MDBK cells (MTS); type: cell-based, Bovine; conditions: for MTC: Table 10, mean toxic concentration, reduces growth of exponentially growing MDBK cells by 50%
Description: as §4

[8] = Bovine viral diarrhea virus isolates and strains, Table 9, reduction of virus induced cytopathic effect in MDBK cells by 50%, BVDV strain PE515, mean of 2-5 determinations, read-out: EC50
[9] = Bovine viral diarrhea virus isolates and strains, Table 10, reduction of virus induced cytopathic effect in MDBK cells by 50%, read-out: EC50
[10] = Bovine viral diarrhea virus isolates and strains, MDBK

| SMILES | EC50 [1] | TC50 [2] | EC50 [4, 8] | CC50 at 3 days [5] | other results |
| --- | --- | --- | --- | --- | --- |
| Fc1ccc(Cn2ccc3nc(-c4c(F)ccc(F)c4F)nc-3c2)c(F)c1 [GPC-12, 5-[(2,4-Difluorophenyl)methyl]-2-(2,3,6-trifluorophenyl)-5H-imidazo[4,5-c]pyridine] | 3.6 µg/mL (≈ 9.59 µM) | >100 µg/mL |  |  |  |
| CC(C)(C)c1ccc(Cn2ccc3nc(-c4ccccc4)nc-3c2)cc1 [GPJN-16, 5-[[4-(1,1-Dimethylethyl)phenyl]methyl]-2-phenyl-5H-imidazo[4,5-c]pyridine] |  |  | 0.246 µg/mL (≈ 0.72 µM) | 8.1 µg/mL (≈ 23.7 µM) | CC50 at 72 hours [3]: 3 µg/mL (≈ 8.79 µM); EC50 [6]: 1 µg/mL (≈ 2.93 µM) |
| Clc1c2nc(-c3ccccc3)nc-2ccn1Cc1ccc(Br)cc1 [GPJN-96, 5-[(4-Bromophenyl)methyl]-4-chloro-2-phenyl-5H-imidazo[4,5-c]pyridine] |  |  |  |  | CC50 at 72 hours [3]: 4 µg/mL (≈ 10 µM); EC50 [6]: 1 µg/mL (≈ 2.51 µM) |
| Brc1cccc(-c2nc3ccn(CCOc4ccccc4)cc-3n2)c1 [GPJN-100, 2-(3-Bromophenyl)-5-(2-phenoxyethyl)-5H-imidazo[4,5-c]pyridine] |  |  |  |  | EC50 [4, 9]: 0.088 µg/mL (≈ 0.223 µM); MTC [7]: 20 µg/mL |
| Cc1cn(Cc2ccc(Br)cc2)cc2nc(-c3ccccc3)nc1-2 [GPJN-104, 5-[(4-Bromophenyl)methyl]-7-methyl-2-phenyl-5H-imidazo[4,5-c]pyridine] |  |  |  |  | EC50 [4, 9]: 0.27 µg/mL (≈ 0.714 µM); MTC [7]: 20 µg/mL |
| Fc1cccc(-c2nc3ccn(Cc4ccc(Br)cc4)cc-3n2)c1 [GPJN-50, 5-[(4-Bromophenyl)methyl]-2-(3-fluorophenyl)-5H-imidazo[4,5-c]pyridine] | 8.47 µg/mL (≈ 22.2 µM) | >100 µg/mL | 0.021 µg/mL (≈ 0.0549 µM) | > 100 µg/mL |  |
| Brc1ccc(Cn2ccc3nc(-c4cccc5ccccc45)nc-3c2)cc1 [GPJN-62, 5-[(4-Bromophenyl)methyl]-2-(1-naphthalenyl)-5H-imidazo[4,5-c]pyridine] |  |  | 0.12 µg/mL (≈ 0.29 µM) | 9.4 µg/mL (≈ 22.7 µM) | CC50 at 72 hours [3]: 6 µg/mL (≈ 14.5 µM); EC50 [6]: < 0.62 µg/mL |
| Fc1ccc(Cn2ccc3nc(-c4c(F)cccc4F)nc-3c2)c(F)c1 [GPJN-40, 2-(2,6-Difluorophenyl)-5-[(2,4-difluorophenyl)methyl]-5H-imidazo[4,5-c]pyridine] | 8.95 µg/mL (≈ 25 µM) | >100 µg/mL | 0.25 µg/mL (≈ 0.7 µM) | > 100 µg/mL |  |
| c1ccc(-c2ccc(Cn3ccc4nc(-c5cccc6ccccc56)nc-4c3)cc2)cc1 [GPJN-115, 5-([1,1′-Biphenyl]-4-ylmethyl)-2-(1-naphthalenyl)-5H-imidazo[4,5-c]pyridine] |  |  |  |  | EC50 [4, 9]: 0.24 µg/mL (≈ 0.583 µM); MTC [7]: 4 µg/mL |
| Fc1cccc(F)c1-c1nc2ccn(Cc3ccc(Cl)c(Cl)c3)cc-2n1 [GPC-10, 5-[(3,4-Dichlorophenyl)methyl]-2-(2,6-difluorophenyl)-5H-imidazo[4,5-c]pyridine] | 1.81 µg/mL (≈ 4.64 µM) | 59 µg/mL (≈ 151 µM) | 0.064 µg/mL (≈ 0.164 µM) | 4 µg/mL (≈ 10.3 µM) |  |
| c1ccc(-c2nc3ccn(Cc4cccc5ccccc45)cc-3n2)cc1 [GPJN-36, 5-(1-Naphthalenylmethyl)-2-phenyl-5H-imidazo[4,5-c]pyridine] |  |  |  |  | EC50 ([4]; Table 9, reduction of virus induced cytopathic effect in MDBK cells by 50%, BVDV strain PE515, mean of 2-5 determinations): 0.019 µg/mL (≈ 0.0566 µM); CC50 ([7]; Table 9, reduction of growth of exponentially growing MDBK cells by 50%, mean of 2-5 determinations): 24 µg/mL (≈ 71.6 µM) |
| FC(F)(F)c1cccc(-c2nc3ccn(Cc4ccc(Br)cc4)cc-3n2)c1 [GPJN-87, 5-[(4-Bromophenyl)methyl]-2-[3-(trifluoromethyl)phenyl]-5H-imidazo[4,5-c]pyridine] |  |  |  |  | CC50 at 72 hours [3]: 20 µg/mL (≈ 46.3 µM); EC50 [6]: < 0.62 µg/mL |
| Brc1ccc(Cn2ccc3nc(CSc4ccccc4)nc-3c2)cc1 [GPJN-83, 5-[(4-Bromophenyl)methyl]-2-[(phenylthio)methyl]-5H-imidazo[4,5-c]pyridine] |  |  |  |  | CC50 at 72 hours [3]: 8 µg/mL (≈ 19.5 µM); EC50 [6]: < 0.62 µg/mL |
| Clc1cn(Cc2ccc(Br)cc2)cc2nc(-c3ccccc3)nc1-2 [GPJN-103, 5-[(4-Bromophenyl)methyl]-7-chloro-2-phenyl-5H-imidazo[4,5-c]pyridine] |  |  |  |  | EC50 [4, 9]: 0.061 µg/mL (≈ 0.153 µM); MTC [7]: 20 µg/mL |
| Cc1cccc(-c2nc3ccn(Cc4ccc(Br)cc4)cc-3n2)c1 [GPJN-60, 5-[(4-Bromophenyl)methyl]-2-(3-methylphenyl)-5H-imidazo[4,5-c]pyridine] | 6.1 µg/mL (≈ 16.1 µM) | >100 µg/mL |  | > 77 µg/mL | EC50 [4, 10]: 0.015 µg/mL (≈ 0.0397 µM) |
| c1ccc(-c2ccc(Cn3ccc4nc(-c5ccccc5)nc-4c3)cc2)cc1 [GPJN-32, 5-([1,1′-Biphenyl]-4-ylmethyl)-2-phenyl-5H-imidazo[4,5-c]pyridine] | 6.5 µg/mL (≈ 18 µM) | 69 µg/mL (≈ 191 µM) | 0.027 µg/mL (≈ 0.0747 µM) | 20 µg/mL (≈ 55.3 µM) |  |
| Clc1cccc(Cn2ccc3nc(-c4ccccc4)nc-3c2)c1 [GPJN-8, 5-[(3-Chlorophenyl)methyl]-2-phenyl-5H-imidazo[4,5-c]pyridine] |  |  | 0.086 µg/mL (≈ 0.269 µM) | 51 µg/mL (≈ 159 µM) |  |
| COc1cccc(-c2nc3ccn(Cc4ccc(Br)cc4)cc-3n2)c1 [GPJN-64, 5-[(4-Bromophenyl)methyl]-2-(3-methoxyphenyl)-5H-imidazo[4,5-c]pyridine] | 12 µg/mL (≈ 30.4 µM) | >42 µg/mL | 0.026 µg/mL (≈ 0.0659 µM) | > 100 µg/mL |  |
| Cc1cccc(Cn2ccc3nc(-c4ccccc4)nc-3c2)c1 [GPJN-21, 5-[(3-Methylphenyl)methyl]-2-phenyl-5H-imidazo[4,5-c]pyridine] |  |  | 0.022 µg/mL (≈ 0.0735 µM) | 22 µg/mL (≈ 73.5 µM) |  |
| Fc1cccc(-c2nc3ccn(Cc4ccc(F)cc4F)cc-3n2)c1 [GPC-11, 5-[(2,4-Difluorophenyl)methyl]-2-(3-fluorophenyl)-5H-imidazo[4,5-c]pyridine] | 4.76 µg/mL (≈ 14 µM) | >100 µg/mL | 0.56 µg/mL (≈ 1.65 µM) | > 100 µg/mL |  |
| Brc1ccc(Cn2ccc3nc(-c4cccc(Br)c4)nc-3c2)cc1 [GPJN-65, 2-(3-Bromophenyl)-5-[(4-bromophenyl)methyl]-5H-imidazo[4,5-c]pyridine] |  |  |  | > 100 µg/mL | EC50 [4, 10]: 0.01 µg/mL (≈ 0.0226 µM) |
| CCc1nc2ccn(Cc3ccc(Br)cc3)cc-2n1 [GPJN-48, 5-[(4-Bromophenyl)methyl]-2-ethyl-5H-imidazo[4,5-c]pyridine] |  |  | 0.351 µg/mL (≈ 1.11 µM) | > 100 µg/mL |  |
| COc1ccc(Cn2ccc3nc(-c4ccccc4)nc-3c2)cc1 [GPJN-13, 5-[(4-Methoxyphenyl)methyl]-2-phenyl-5H-imidazo[4,5-c]pyridine] |  |  | 0.043 µg/mL (≈ 0.136 µM) | 45 µg/mL (≈ 143 µM) |  |

Source: patent US8779141B2, “Viral inhibitors” (Gilead Sciences, Inc., priority 2002, dated 2014)
